Reference: PMC9496819 (Cancers, 2022)

Assays:
OVCAR8 cells = experiment: Presto Blue cell viability assay, single drugs and Paclitaxel combinations (Chou–Talalay, Bliss, HSA analysis); conditions: for Cellular viability (%) Media: OVCAR8, 48 h, alone or combined
Method: (§1) To determine the effect of single and combination drug treatments on the cellular viability of cell lines, a resazurin-based assay—Presto Blue (PB)—was performed. Briefly, 5 × 10^3 cells/well were seeded into a 96-well plate in complete media, incubated at 37 °C and 5% CO2 and allowed to adhere overnight prior to drug exposure. After 24 h, cells were exposed to increasing concentrations of drugs and incubated under the same conditions. After 48 h, culture medium was removed, and 50 μL/well of PrestoBlue^TM Cell Viability Reagent 1× (ThermoFisher Scientific) was added. Cells were incubated for 45 min, protected from light, at 37 °C and 5% CO2.
(§2) The IC50 values were first obtained for each drug alone for OVCAR8, OVCAR8 PTX R P and HOSE6.3 cell lines. […] A mutually exclusive model, assuming that drugs act through […] mechanisms, was used for this analysis. […] The CI is a quantitative representation of pharmacological interactions (i.e., CI < 1, synergism; =1, additive interactions; and >1, antagonism), plotted on y-axis as a function of effect level (Fa) on the x-axis to assess drug synergism between drug combinations. Additionally, we estimated the expected drug combination responses based on the Bliss Independence and Highest Single Agent (HSA) reference models using SynergyFinder 2.0 Software. Positive and negative synergy score values denote synergy and antagonism, respectively. The cNMF algorithm implemented in SynergyFinder 2.0 was used for estimation of outlier measurements.

OVCAR8 PTX R P cells = experiment: as above; conditions: for Cellular viability (%) Media: alone or combined
Method: as §1, §2

HOSE6.3 cells = experiment: Presto Blue cell viability assay in non-tumoral cells, single drugs and Paclitaxel combinations (Chou–Talalay, Bliss, HSA analysis); conditions: for IC50 (in words) / IC50: 48 h; for IC50 (in words): considered concentration ranges; for Cellular viability (%) Media: HOSE6.3, 48 h, alone or combined
Method: as §1, §2

[1] = as above; conditions: human, HOSE6.3 cells (non-tumoral)
Method: as §1, §2

[2] = OVCAR8 PTX R P, 48 h, 0.25 x IC50 of each drug
[3] = OVCAR8 PTX R P, 48 h, 0.5 x IC50 of each drug
[4] = OVCAR8 PTX R P, 48 h, 2 x IC50 of each drug
[5] = OVCAR8 PTX R P, 48 h, IC50 of each drug

NCCCC(O)(P(=O)(O)O)P(=O)(O)O [Alendronate]
IC50 (OVCAR8 cells; Homo sapiens, OVCAR-8, 48 h): 219 ± 13.6 µM
IC50 (OVCAR8 PTX R P cells; Homo sapiens, OVCAR-8, 48 h): 196 ± 20.2 µM
IC50 (in words) (HOSE6.3 cells; HOSE6.3, single agent): not obtaining IC50 values in the considered concentration ranges

CCC(C)n1ncn(-c2ccc(N3CCN(c4ccc(OCC5COC(Cn6cncn6)(c6ccc(Cl)cc6Cl)O5)cc4)CC3)cc2)c1=O (stereo not drawn) [Itraconazole]
IC50 (OVCAR8 cells; Homo sapiens, OVCAR-8, 48 h): 39.1 ± 3.38 µM
IC50 (OVCAR8 PTX R P cells; Homo sapiens, OVCAR-8, 48 h): 35.6 ± 0.48 µM
IC50 (HOSE6.3 cells; Homo sapiens): 38.6 ± 5.11 µM

CN(C)C(=N)N=C(N)N [Metformin]
IC50 (OVCAR8 cells; Homo sapiens, OVCAR-8, 48 h): 1500 ± 169 µM
IC50 (OVCAR8 PTX R P cells; Homo sapiens, OVCAR-8, 48 h): 1460 ± 193 µM
IC50 (in words) (HOSE6.3 cells; HOSE6.3, single agent): not obtaining IC50 values in the considered concentration ranges

O=C(O)C[C@H](O)C[C@H](O)/C=C/c1c(C2CC2)nc2ccccc2c1-c1ccc(F)cc1 [Pitavastatin]
IC50 (OVCAR8 cells; Homo sapiens, OVCAR-8, 48 h): 0.801 ± 0.061 µM
Cellular viability (%) Media (OVCAR8 cells; 0.25 x IC50 of each drug): 61.378%
Cellular viability (%) Media (OVCAR8 cells; 0.5 x IC50 of each drug): 51.912%
Cellular viability (%) Media (OVCAR8 cells; 2 x IC50 of each drug): 27.970%
Cellular viability (%) Media (OVCAR8 cells; IC50 of each drug): 45.624%
IC50 (OVCAR8 PTX R P cells; Homo sapiens, OVCAR-8, 48 h): 0.85 ± 0.142 µM
Cellular viability (%) Media (OVCAR8 PTX R P cells; [2]): 59.998%
Cellular viability (%) Media (OVCAR8 PTX R P cells; [3]): 50.426%
Cellular viability (%) Media (OVCAR8 PTX R P cells; [4]): 28.330%
Cellular viability (%) Media (OVCAR8 PTX R P cells; [5]): 45.406%
viability at 48 h, 0.25 x IC50 [1]: 81.8%
viability at 48 h, 0.5 x IC50 [1]: 76.5%
viability at 48 h, 1 x IC50 [1]: 68.5%
viability at 48 h, 2 x IC50 [1]: 65.9%
viability at 48 h, 4 x IC50 [1]: 61.4%
IC50 (in words) (HOSE6.3 cells; HOSE6.3, single agent): not obtaining IC50 values in the considered concentration ranges

Ivermectin
Cellular viability (%) Media (OVCAR8 cells; 0.25 x IC50 of each drug): 77.004%
Cellular viability (%) Media (OVCAR8 cells; 0.5 x IC50 of each drug): 69.934%
Cellular viability (%) Media (OVCAR8 cells; 2 x IC50 of each drug): 0.759%
Cellular viability (%) Media (OVCAR8 cells; 4 x IC50 of each drug): 0.867%
Cellular viability (%) Media (OVCAR8 cells; IC50 of each drug): 46.412%
IC50 (OVCAR8 cells; OVCAR8, single agent, 48 h): 16 ± 2.91 µM
Cellular viability (%) Media (OVCAR8 PTX R P cells; [2]): 81.152%
Cellular viability (%) Media (OVCAR8 PTX R P cells; [3]): 65.026%
Cellular viability (%) Media (OVCAR8 PTX R P cells; [4]): 0.966%
Cellular viability (%) Media (OVCAR8 PTX R P cells; OVCAR8 PTX R P, 48 h, 4 x IC50 of each drug): 1.370%
Cellular viability (%) Media (OVCAR8 PTX R P cells; [5]): 47.496%
IC50 (OVCAR8 PTX R P cells; OVCAR8 PTX R P, single agent, 48 h): 15.5 ± 1.86 µM
Cellular viability (%) Media (HOSE6.3 cells; 0.5 x IC50 of each drug): 99.694%
Cellular viability (%) Media (HOSE6.3 cells; 2 x IC50 of each drug): 0.539%
Cellular viability (%) Media (HOSE6.3 cells; 4 x IC50 of each drug): 0.000%
Cellular viability (%) Media (HOSE6.3 cells; IC50 of each drug): 53.462%
IC50 (HOSE6.3 cells; HOSE6.3, single agent): 12.6 ± 2.19 µM
